Experimental data as given in patent US9302999B2, “Substituted triazoles as herbicides” (E. I. DU PONT DE NEMOURS AND COMPANY, priority 2012, dated 2016).

Legend:
Assay type in all cases: in vivo
[1] = test system: wheat, spring (spring wheat, Triticum aestivum); assay: Test D pre-/postemergence: wheat, spring
In short: (§1)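 Pre- and postemergence herbicide screen. Soil for pre: silt loam; post medium: peat moss, vermiculite, wetting agent, starter nutrients. Plant stage at post: 1- to 4-leaf. Readout: visual % control, 14–21 days.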

rice (Oryza sativa) = assay: Test C flooded paddy test: rice; conditions: scale 0 to 100 (0 no effect, 100 complete control)
In short: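 Visual ratings from 0 (no effect) to 100 (complete control), made against untreated controls 13 to 15 days after treatment, express plant response. Compounds went directly into paddy water over 2-leaf stage plants in pots flooded to 3 cm.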

[2] = test system: lambsquarters (Chenopodium album); assay: Test D pre-/postemergence: lambsquarters
In short: as §1

[3] = test system: blackgrass (Alopecurus myosuroides); assay: Test D pre-/postemergence: blackgrass
In short: as §1

[4] = test system: Russian thistle (Salsola kali); assay: Test C pre-/postemergence: Russian thistle; conditions: Preemergence
In short: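 Preemergence on seeds in loam/sand, postemergence on 2–18 cm (1–4-leaf) plants in peat-based medium; compounds in non-phytotoxic solvent with surfactant. After 13–15 days in greenhouse, visual rating versus controls, 0 (no effect) to 100 (complete control).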

[5] = test system: foxtail, green (green foxtail, Setaria viridis); assay: Test D pre-/postemergence: foxtail, green
In short: as §1

[6] = test system: deadnettle (henbit deadnettle, Lamium amplexicaule); assay: Test D pre-/postemergence: deadnettle
In short: as §1

[7] = test system: wheat, winter (winter wheat, Triticum aestivum); assay: Test D pre-/postemergence: wheat, winter
In short: as §1

[8] = Postemergence, 31 g ai/ha, scale 0 to 100 (0 no effect, 100 complete control)
[9] = Postemergence, 62 g ai/ha, scale 0 to 100 (0 no effect, 100 complete control)
[10] = Postemergence, 125 g ai/ha, scale 0 to 100, 0 no effect, 100 complete control
[11] = Postemergence, 250 g ai/ha, scale 0 to 100 (0 no effect, 100 complete control)
[12] = Postemergence, 16 g ai/ha, scale 0 to 100
[13] = Preemergence, 31 g ai/ha, scale 0 to 100, 0 no effect, 100 complete control
[14] = Preemergence, 62 g ai/ha, scale 0 to 100
[15] = Preemergence, 125 g ai/ha, scale 0 to 100
[16] = Preemergence, 250 g ai/ha, scale 0 to 100
[17] = 31 g ai/ha, scale of 0 to 100, 0 is no effect, 100 is complete control
[18] = 125 g ai/ha, scale 0 to 100, 0 no effect, 100 complete control
[19] = Preemergence, 16 g ai/ha, scale 0 to 100, 0 no effect, 100 complete control

## COc1nn(-c2ccc(C(F)(F)F)cc2)nc1Cc1ccnc(C(F)(F)F)c1 [Compound 15, 4-[[5-methoxy-2-[4-(trifluoromethyl)phenyl]-2H-1,2,3-triazol-4-yl]methyl]-2-(trifluoromethyl)pyridine]
[1]; [8]
  Plant response rating: Wheat, Spring: 25
[1]; [9]
  Plant response rating: Wheat, Spring: 30
[1]; [10]
  Plant response rating: Wheat, Spring: 40
[1]; [11]
  Plant response rating: Wheat, Spring: 50
[1]; [12]
  Plant response rating, Wheat, Spring: 20
[1]; [13]
  Plant response rating, Wheat, Spring: 0
[1]; [14]
  Plant response rating, Wheat, Spring: 0
[1]; [15]
  Plant response rating, Wheat, Spring: 0
[1]; [16]
  Plant response rating, Wheat, Spring: 5
Rice (Oryza sativa); Oryza sativa, Flood (flooded paddy test), 62 g ai/ha, visual rating after 13 to 15 days, read-out: Plant response rating, Rice
  plant injury at 62 g/ha: 45%
Rice (Oryza sativa); Oryza sativa, Flood (flooded paddy test), 250 g ai/ha, visual rating after 13 to 15 days, read-out: Plant response rating, Rice
  plant injury at 250 g/ha: 50%
[2]; [8]
  Plant response rating: Lambsquarters: 100
[2]; [9]
  Plant response rating: Lambsquarters: 100
[2]; [10]
  Plant response rating: Lambsquarters: 100
[2]; [11]
  Plant response rating: Lambsquarters: 100
[2]; [12]
  Plant response rating, Lambsquarters: 50
[2]; [13]
  Plant response rating, Lambsquarters: 0
[2]; [14]
  Plant response rating, Lambsquarters: 90
[2]; [15]
  Plant response rating, Lambsquarters: 100
[2]; [16]
  Plant response rating, Lambsquarters: 100
[3]; [8]
  Plant response rating: Blackgrass: 15
[3]; [9]
  Plant response rating: Blackgrass: 30
[3]; [10]
  Plant response rating: Blackgrass: 50
[3]; [11]
  Plant response rating: Blackgrass: 85
[3]; [12]
  Plant response rating, Blackgrass: 15
[3]; [13]
  Plant response rating, Blackgrass: 0
[3]; [14]
  Plant response rating, Blackgrass: 25
[3]; [15]
  Plant response rating, Blackgrass: 80
[3]; [16]
  Plant response rating, Blackgrass: 90
[4]; 16 g ai/ha, scale 0 (no effect) to 100 (complete control)
  Plant response rating, Russian Thistle: 5
[4]; [17]
  Plant response rating, Russian Thistle: 50
[4]; 62 g ai/ha, scale of 0 to 100, 0 is no effect, 100 is complete control
  Plant response rating, Russian Thistle: 95
[4]; [18]
  Plant response rating, Russian Thistle: 100
[5]; [8]
  Plant response rating: Foxtail, Green: 30
[5]; [9]
  Plant response rating: Foxtail, Green: 80
[5]; [10]
  Plant response rating: Foxtail, Green: 75
[5]; [11]
  Plant response rating: Foxtail, Green: 100
[5]; [12]
  Plant response rating, Foxtail, Green: 15
[5]; [13]
  Plant response rating, Foxtail, Green: 70
[5]; [14]
  Plant response rating, Foxtail, Green: 100
[5]; [15]
  Plant response rating, Foxtail, Green: 100
[5]; [16]
  Plant response rating, Foxtail, Green: 100
[6]; [8]
  Plant response rating: Deadnettle: 75
[6]; [9]
  Plant response rating: Deadnettle: 98
[6]; [10]
  Plant response rating: Deadnettle: 100
[6]; [11]
  Plant response rating: Deadnettle: 100
[6]; [12]
  Plant response rating, Deadnettle: 50
[6]; [13]
  Plant response rating, Deadnettle: 10
[6]; [14]
  Plant response rating, Deadnettle: 40
[6]; [15]
  Plant response rating, Deadnettle: 95
[6]; [16]
  Plant response rating, Deadnettle: 100
[7]; [8]
  Plant response rating: Wheat, Winter: 10
[7]; [9]
  Plant response rating: Wheat, Winter: 15
[7]; [10]
  Plant response rating: Wheat, Winter: 25
[7]; [11]
  Plant response rating: Wheat, Winter: 35
[7]; [12]
  Plant response rating, Wheat, Winter: 5
[7]; [13]
  Plant response rating, Wheat, Winter: 0
[7]; [14]
  Plant response rating, Wheat, Winter: 0
[7]; [15]
  Plant response rating, Wheat, Winter: 0
[7]; [16]
  Plant response rating, Wheat, Winter: 5

## Cc1nn(-c2ccc(C(F)(F)F)cc2)nc1Oc1ccnc(C(F)(F)F)c1 [Compound 120]
[1]; [8]
  Plant response rating: Wheat, Spring: 10
[1]; [9]
  Plant response rating: Wheat, Spring: 10
[1]; [10]
  Plant response rating: Wheat, Spring: 20
[1]; [11]
  Plant response rating: Wheat, Spring: 25
[1]; [12]
  Plant response rating, Wheat, Spring: 10
[1]; [19]
  Plant response rating, Wheat, Spring: 0
[1]; [13]
  Plant response rating, Wheat, Spring: 0
[1]; [14]
  Plant response rating, Wheat, Spring: 5
[1]; [15]
  Plant response rating, Wheat, Spring: 10
[1]; [16]
  Plant response rating, Wheat, Spring: 20
Rice (Oryza sativa); Flood (flooded paddy test), 125 g ai/ha, visual rating after 13 to 15 days
  Plant response rating, Rice: 70
Rice (Oryza sativa); Flood (flooded paddy test), 250 g ai/ha, visual rating after 13 to 15 days
  Plant response rating, Rice: 80
Rice (Oryza sativa); Flood, 62 g ai/ha
  Plant response rating, Rice: 60
[2]; [8]
  Plant response rating: Lambsquarters: 98
[2]; [9]
  Plant response rating: Lambsquarters: 100
[2]; [10]
  Plant response rating: Lambsquarters: 100
[2]; [11]
  Plant response rating: Lambsquarters: 100
[2]; [12]
  Plant response rating, Lambsquarters: 95
[2]; [13]
  Plant response rating, Lambsquarters: 80
[2]; [14]
  Plant response rating, Lambsquarters: 90
[2]; [15]
  Plant response rating, Lambsquarters: 100
[2]; [16]
  Plant response rating, Lambsquarters: 100
[3]; [8]
  Plant response rating: Blackgrass: 10
[3]; [9]
  Plant response rating: Blackgrass: 30
[3]; [10]
  Plant response rating: Blackgrass: 75
[3]; [11]
  Plant response rating: Blackgrass: 85
[3]; [12]
  Plant response rating, Blackgrass: 5
[3]; [19]
  Plant response rating, Blackgrass: 0
[3]; [13]
  Plant response rating, Blackgrass: 80
[3]; [14]
  Plant response rating, Blackgrass: 98
[3]; [15]
  Plant response rating, Blackgrass: 100
[3]; [16]
  Plant response rating, Blackgrass: 100
[4]; [17]
  Plant response rating, Russian Thistle: 0
[4]; [18]
  Plant response rating, Russian Thistle: 85
[4]; 250 g ai/ha, scale 0 to 100, 0 no effect, 100 complete control
  Plant response rating, Russian Thistle: 100
[5]; [8]
  Plant response rating: Foxtail, Green: 15
[5]; [9]
  Plant response rating: Foxtail, Green: 80
[5]; [10]
  Plant response rating: Foxtail, Green: 95
[5]; [11]
  Plant response rating: Foxtail, Green: 100
[5]; [12]
  Plant response rating, Foxtail, Green: 5
[5]; [19]
  Plant response rating, Foxtail, Green: 70
[5]; [13]
  Plant response rating, Foxtail, Green: 100
[5]; [14]
  Plant response rating, Foxtail, Green: 100
[5]; [15]
  Plant response rating, Foxtail, Green: 100
[5]; [16]
  Plant response rating, Foxtail, Green: 100
[6]; [8]
  Plant response rating: Deadnettle: 90
[6]; [9]
  Plant response rating: Deadnettle: 90
[6]; [10]
  Plant response rating: Deadnettle: 100
[6]; [11]
  Plant response rating: Deadnettle: 100
[6]; [12]
  Plant response rating, Deadnettle: 30
[6]; [19]
  Plant response rating, Deadnettle: 0
[6]; [13]
  Plant response rating, Deadnettle: 85
[6]; [14]
  Plant response rating, Deadnettle: 100
[6]; [15]
  Plant response rating, Deadnettle: 100
[6]; [16]
  Plant response rating, Deadnettle: 100
[7]; [8]
  Plant response rating: Wheat, Winter: 5
[7]; [9]
  Plant response rating: Wheat, Winter: 10
[7]; [10]
  Plant response rating: Wheat, Winter: 15
[7]; [11]
  Plant response rating: Wheat, Winter: 20
[7]; [12]
  Plant response rating, Wheat, Winter: 5
[7]; [19]
  Plant response rating, Wheat, Winter: 0
[7]; [13]
  Plant response rating, Wheat, Winter: 0
[7]; [14]
  Plant response rating, Wheat, Winter: 5
[7]; [15]
  Plant response rating, Wheat, Winter: 5
[7]; [16]
  Plant response rating, Wheat, Winter: 10
